Experimental data reported in PubChem BioAssay AID330 (DTP/NCI, 2004).
Several values for one entry are separate records, joined by “and”; a condition that tells them apart may be missing. Equal entries are not always repeated. Inconclusive results and toxic doses are left out.

Tested on: P388 leukemia ip, CD2F1 mice, survival T/C
Experiment: NCI In Vivo Anticancer Drug Screen. Data for tumor model P388 Leukemia (intraperitoneal) in CD2F1 (CDF1) mice
Details: endpoint: median survival time, higher = longer survival
Procedure, shortened: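 Mice carrying the transplanted tumor received test compound or vehicle. Survival was recorded in each group, and the value is the treated-group measurement divided by that of the vehicle-treated control group.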

[1] = dose: 100.0 mg/kg/injection, schedule: Q04DX003 (ip), vehicle: saline with Tween-80
[2] = dose: 200.0 mg/kg/injection, schedule: Q04DX003 (ip), vehicle: saline with Tween-80
[3] = dose: 400.0 mg/kg/injection, schedule: Q04DX003 (ip), vehicle: saline with Tween-80
[4] = dose: 50.0 mg/kg/injection, schedule: Q01DX005 (ip), vehicle: saline with Tween-80
[5] = dose: 100.0 mg/kg/injection, schedule: Q01DX005 (ip), vehicle: saline with Tween-80
[6] = dose: 60.0 mg/kg/injection, schedule: Q01DX005 (ip), vehicle: saline with Tween-80
[7] = dose: 120.0 mg/kg/injection, schedule: Q01DX005 (ip), vehicle: saline with Tween-80
[8] = dose: 240.0 mg/kg/injection, schedule: Q01DX005 (ip), vehicle: saline with Tween-80
[9] = dose: 100.0 mg/kg/injection, schedule: Q04DX002 (ip), vehicle: saline
[10] = dose: 200.0 mg/kg/injection, schedule: Q04DX002 (ip), vehicle: saline

With `CCSC(=O)OCC(C)([N+](=O)[O-])[N+](=O)[O-]` the T/C (dose: 100.0 mg/kg/injection, schedule: Q04DX003 (ip), vehicle: saline) was 94 % of control, the T/C (dose: 200.0 mg/kg/injection, schedule: Q04DX003 (ip), vehicle: saline) was 94 % of control and the T/C (dose: 400.0 mg/kg/injection, schedule: Q04DX003 (ip), vehicle: saline) was 100 % of control.
In the case of `COC(=O)c1ccc(-c2cc(Cl)c3cc(S(=O)(=O)F)ccc3n2)cc1`, the T/C [1] is reported as 95 % of control, the T/C [2] is reported as 90 % of control and the T/C [3] is reported as 90 % of control.
In the case of `CCOC(=O)[C@]12CCC[C@@]1(O)NC(=O)c1cnccc12`, the T/C [1] is reported as 100 % of control, the T/C [2] is reported as 97 % of control and the T/C [3] is reported as 93 % of control.
`OCCCC(=S)NCCNC(=S)CCCO` was tested, and the T/C (dose: 60.0 mg/kg/injection, schedule: Q01DX005 (ip), vehicle: Klucel (hydroxypropylcellulose) (HPC)) was 101 % of control, the T/C (dose: 120.0 mg/kg/injection, schedule: Q01DX005 (ip), vehicle: Klucel (hydroxypropylcellulose) (HPC)) was 92 % of control and the T/C (dose: 240.0 mg/kg/injection, schedule: Q01DX005 (ip), vehicle: Klucel (hydroxypropylcellulose) (HPC)) was 101 % of control.
`CC(=O)Nc1cccn(C)c1=O` was tested, and the T/C (dose: 6.25 mg/kg/injection, schedule: Q01DX009 (ip), vehicle: distilled water + Tween-80) was 100 % of control, the T/C (dose: 12.5 mg/kg/injection, schedule: Q01DX009 (ip), vehicle: distilled water + Tween-80) was 100 % of control and the T/C (dose: 12.5 mg/kg/injection, schedule: Q01DX009 (ip), vehicle: water) was 98 % of control. For the same compound, the T/C (dose: 25.0 mg/kg/injection, schedule: Q01DX009 (ip), vehicle: distilled water + Tween-80) was 102 % of control, the T/C (dose: 25.0 mg/kg/injection, schedule: Q01DX009 (ip), vehicle: water) was 123 % of control and the T/C (dose: 50.0 mg/kg/injection, schedule: Q01DX009 (ip), vehicle: distilled water + Tween-80) was 107 % of control. The T/C (dose: 50.0 mg/kg/injection, schedule: Q01DX009 (ip), vehicle: water) was 112 % of control, the T/C (dose: 100.0 mg/kg/injection, schedule: Q01DX009 (ip), vehicle: distilled water + Tween-80) was 120 % of control and the T/C (dose: 100.0 mg/kg/injection, schedule: Q01DX009 (ip), vehicle: water) was 113 % of control. For the same compound, the T/C (dose: 200.0 mg/kg/injection, schedule: Q01DX009 (ip), vehicle: water) was 112 % of control.
With `CC(=O)NCC1(C)CCCC2(C)C3=CC(=O)C(C(C)C)=CC3(O)CCC12` (stereo not drawn) the T/C (dose: 100.0 mg/kg/injection, schedule: Q01DX001 (ip), vehicle: Klucel (hydroxypropylcellulose) (HPC)) was 98 % of control, the T/C (dose: 200.0 mg/kg/injection, schedule: Q01DX001 (ip), vehicle: Klucel (hydroxypropylcellulose) (HPC)) was 90 % of control and the T/C (dose: 400.0 mg/kg/injection, schedule: Q01DX001 (ip), vehicle: Klucel (hydroxypropylcellulose) (HPC)) was 94 % of control.
For `C[Si](C)(C)N=S=N[Si](C)(C)C`, the T/C [4] was 101 % of control and the T/C [5] was 108 % of control.
`COC(=O)/C=C/c1c(=O)c(C(=O)OC)cn2cnc3nc[nH]c3c12` was tested, and the T/C [1] was 97 % of control, the T/C [2] was 93 % of control and the T/C [3] was 98 % of control.
With `O=[C-]/C=C\[C-]=O.[C-]#[O+].[C-]#[O+].[C-]#[O+].[C-]#[O+].[Fe+2]` the T/C (dose: 12.5 mg/kg/injection, schedule: Q01DX005 (ip), vehicle: saline with Tween-80) was 112 % of control, the T/C (dose: 25.0 mg/kg/injection, schedule: Q01DX005 (ip), vehicle: saline with Tween-80) was 110 % of control and the T/C [4] was 100 % of control.
With `CC(C(O)c1ccc2cc(Br)c3ccccc3c2c1)N(C)C` (stereo not drawn) the T/C [4] was 100 % of control and the T/C [5] was 91 % of control.
`O=C(O)C1=C(C(=O)O)C2c3ccccc3C1c1ccccc12` was tested, and the T/C [4] was 99 % of control, the T/C [5] was 90 % of control and the T/C (dose: 200.0 mg/kg/injection, schedule: Q01DX005 (ip), vehicle: saline with Tween-80) was 103 % of control.
For `CC(CC(=O)c1ccccc1)=Nc1ccccc1`, the T/C (dose: 100.0 mg/kg/injection, schedule: Q01DX001 (ip), vehicle: saline sonified) was 110 % of control, the T/C (dose: 200.0 mg/kg/injection, schedule: Q01DX001 (ip), vehicle: saline sonified) was 100 % of control and the T/C (dose: 400.0 mg/kg/injection, schedule: Q01DX001 (ip), vehicle: saline sonified) was 100 % of control.
For `CC12OC(=O)CC1C(c1ccccc1)(c1ccccc1)O2` (stereo not drawn), the T/C [6] was 100 % of control, the T/C [7] was 94 % of control and the T/C [8] was 88 % of control.
With `S=C(N/N=C/c1ccccn1)Nc1ccccn1` the T/C (dose: 130.0 mg/kg/injection, schedule: Q04DX003 (ip), vehicle: Klucel (hydroxypropylcellulose) (HPC)) was 117 % of control, the T/C (dose: 200.0 mg/kg/injection, schedule: Q04DX003 (ip), vehicle: Klucel (hydroxypropylcellulose) (HPC)) was 123 % of control and the T/C (dose: 300.0 mg/kg/injection, schedule: Q04DX003 (ip), vehicle: Klucel (hydroxypropylcellulose) (HPC)) was 107 % of control.
In the case of `c1cc2cc3c(cc2[nH]1)OCO3`, the T/C (dose: 50.0 mg/kg/injection, schedule: Q01DX005 (ip), vehicle: Klucel + Tween-80) is reported as 95 % of control, the T/C (dose: 100.0 mg/kg/injection, schedule: Q01DX005 (ip), vehicle: Klucel + Tween-80) is reported as 90 % of control and the T/C (dose: 200.0 mg/kg/injection, schedule: Q01DX005 (ip), vehicle: Klucel + Tween-80) is reported as 95 % of control.
In the case of `NC1=NC(=S)C2N=C(N=Nc3ccc(C(=O)NC(CCC(=O)O)C(=O)O)cc3)N=C2N1` (stereo not drawn), the T/C (dose: 0.19 mg/kg/injection, schedule: Q01DX009 (ip), vehicle: Klucel (hydroxypropylcellulose) (HPC)) is reported as 108 % of control and 120 % of control and the T/C (dose: 3.0 mg/kg/injection, schedule: Q01DX009 (ip), vehicle: Klucel (hydroxypropylcellulose) (HPC)) is reported as 156 % of control.
`O=C(O)C(S)Cc1cnc[nH]1` (stereo not drawn) was tested, and the T/C [9] was 99 % of control and the T/C [10] was 99 % of control.
`CCn1c2ccccc2c2cc(N/C=C/C3=[N+](C)c4ccccc4C3(C)C)ccc21` was tested, and the T/C (dose: 1.56 mg/kg/injection, schedule: Q01DX009 (ip), vehicle: Klucel (hydroxypropylcellulose) (HPC)) was 107 % of control and 111 % of control, the T/C (dose: 3.12 mg/kg/injection, schedule: Q01DX009 (ip), vehicle: Klucel (hydroxypropylcellulose) (HPC)) was 100 % of control and 114 % of control and the T/C (dose: 6.25 mg/kg/injection, schedule: Q01DX009 (ip), vehicle: Klucel (hydroxypropylcellulose) (HPC)) was 116 % of control (2×) and 123 % of control. The T/C (dose: 12.5 mg/kg/injection, schedule: Q01DX009 (ip), vehicle: Klucel (hydroxypropylcellulose) (HPC)) was 109 % of control and the T/C (dose: 25.0 mg/kg/injection, schedule: Q01DX009 (ip), vehicle: Klucel (hydroxypropylcellulose) (HPC)) was 96 % of control.
For `CSC(=S)NNC1=NCCCCC1`, the T/C (dose: 50.0 mg/kg/injection, schedule: Q01DX009 (ip), vehicle: Klucel (hydroxypropylcellulose) (HPC)) was 106 % of control, the T/C (dose: 100.0 mg/kg/injection, schedule: Q01DX009 (ip), vehicle: Klucel (hydroxypropylcellulose) (HPC)) was 97 % of control and the T/C (dose: 200.0 mg/kg/injection, schedule: Q01DX009 (ip), vehicle: Klucel (hydroxypropylcellulose) (HPC)) was 87 % of control.
In the case of `CSC(/C=C1\C=CC=CN1Cc1ccccc1)=NC#N`, the T/C (dose: 25.0 mg/kg/injection, schedule: Q04DX002 (ip), vehicle: saline with Tween-80) is reported as 100 % of control, the T/C (dose: 50.0 mg/kg/injection, schedule: Q04DX002 (ip), vehicle: saline with Tween-80) is reported as 92 % of control and the T/C (dose: 100.0 mg/kg/injection, schedule: Q04DX002 (ip), vehicle: saline with Tween-80) is reported as 99 % of control.
In the case of `COc1cc(NCC(C)(O)CN2CCCCC2)c2ncccc2c1` (stereo not drawn), the T/C (dose: 12.5 mg/kg/injection, schedule: Q01DX005 (ip), vehicle: saline) is reported as 94 % of control, the T/C (dose: 25.0 mg/kg/injection, schedule: Q01DX005 (ip), vehicle: saline) is reported as 98 % of control and the T/C (dose: 50.0 mg/kg/injection, schedule: Q01DX005 (ip), vehicle: saline) is reported as 93 % of control and 97 % of control.
With `COc1cc(C(c2cc3c(cc2O)OCO3)N2CCCCC2)cc(OC)c1OC` (stereo not drawn) the T/C [6] was 111 % of control and 118 % of control and 123 % of control, the T/C [7] was 111 % of control and 118 % of control and the T/C [8] was 103 % of control. The T/C (dose: 480.0 mg/kg/injection, schedule: Q01DX005 (ip), vehicle: saline with Tween-80) was 118 % of control.
`Cc1[nH]nc2c(Cc3ccc([N+](=O)[O-])cc3)n[nH]c(=O)c12` was tested, and the T/C (dose: 100.0 mg/kg/injection, schedule: Q04DX002 (ip), vehicle: Klucel (hydroxypropylcellulose) (HPC)) was 92 % of control, the T/C (dose: 200.0 mg/kg/injection, schedule: Q04DX002 (ip), vehicle: Klucel (hydroxypropylcellulose) (HPC)) was 87 % of control and the T/C (dose: 400.0 mg/kg/injection, schedule: Q04DX002 (ip), vehicle: Klucel (hydroxypropylcellulose) (HPC)) was 92 % of control.
With `CC(C)c1cc(C2C(=O)c3ccccc3C2=O)cc(C(C)C)c1O` the T/C [9] was 106 % of control, the T/C [10] was 114 % of control and the T/C (dose: 400.0 mg/kg/injection, schedule: Q04DX002 (ip), vehicle: saline) was 108 % of control.
